The text below walks through data of patent US20050009840A1 (SUGEN, INC., priority 2003, published 2005).

Molecules are shown by their SMILES. Counter-ions that a name gives are not always drawn.

The target of one assay is T1, Met kinase domain (GST fusion protein) (Homo sapiens, UniProt P08581).
T1 construct: Purified GST fusion protein containing the Met kinase domain
T1 sequence (P08581 1078-1345 limits assumed): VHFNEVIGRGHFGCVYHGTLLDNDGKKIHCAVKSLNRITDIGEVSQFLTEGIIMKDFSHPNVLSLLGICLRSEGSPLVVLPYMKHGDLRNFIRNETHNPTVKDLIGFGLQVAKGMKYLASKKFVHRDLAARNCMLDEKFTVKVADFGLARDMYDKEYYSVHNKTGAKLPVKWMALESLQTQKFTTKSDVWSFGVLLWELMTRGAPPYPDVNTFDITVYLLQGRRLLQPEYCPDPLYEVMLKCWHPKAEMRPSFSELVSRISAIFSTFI
Briefly: Met transphosphorylation assay (ELISA, poly(glu-tyr) substrate).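 Also: Cell-free ELISA with plate-bound poly(Glu:Tyr 4:1) phosphorylated by GST-fused Met kinase domain plus ATP and Mn2+, phosphotyrosine detected by anti-phosphotyrosine antibody with HRP and ABTS read-out.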 The class given is biochemical. Conditions: Table 2; read-out: Met IC50.
Regarding `CC(Oc1cc(-c2ccc(NS(=O)(=O)CCNC3CC3)cc2)cnc1N)c1c(F)ccc(F)c1Cl` (stereo not drawn) [Example I-289, 2-Cyclopropylamino-ethanesulfonic acid (4-{6-amino-5-[1-(2-chloro-3,6-difluoro-phenyl)-ethoxy]-pyridin-3-yl}-phenyl)-amide], the IC50 (in general, the concentration that gives 50% inhibition) came to 0.16 µM.

In the case of `CN1CCN(C(=O)c2ccc(-c3cnc(N)c(OCc4ccc(C(C)(C)C)cc4)c3)cc2)CC1` [Example I-197, {4-[6-Amino-5-(4-tert-butyl-benzyloxy)-pyridin-3-yl]-phenyl}-(4-methyl-piperazin-1-yl)-methanone], the IC50 was determined as 3.8 µM.

Take `CC(Oc1cc(-c2ccc(NS(=O)(=O)CCN3CCCCC3)cc2)cnc1N)c1c(F)ccc(F)c1Cl` (stereo not drawn) [Example I-286, 2-Piperidin-1-yl-ethanesulfonic acid (4-{6-amino-5-[1-(2-cloro-3,6-difluoro-phenyl)-ethoxy]-pyridin-3-yl}-phenyl)-amide]: the concentration for half-maximal inhibition (IC50) is 0.18 µM.

Consider `CC(Oc1cc(-c2ccc(C(=O)NCCCN3CCCC3)cc2)cnc1N)c1c(F)ccc(F)c1Cl` (stereo not drawn) [Example I-336, 4-{6-Amino-5-[1-(2-chloro-3,6-difluoro-phenyl)-ethoxy]-pyridin-3-yl}-N-(3-pyrrolidin-1-yl-propyl)-benzamide], for which the IC50 was determined as 0.09 µM.

For `CN(C)[C@H]1CCN(C(=O)c2ccc(-c3cnc(N)c(OCc4c(F)ccc(F)c4Cl)c3)cc2)C1` [Example I-217, {4-[6-Amino-5-(2-chloro-3,6-difluoro-benzyloxy)-pyridin-3-yl]-phenyl}-[(3S)-3-dimethylamino-pyrrolidin-1-yl]-methanone], the IC50 stood at 0.12 µM.

In the case of `CC(Oc1cc(-c2ccc(NS(=O)(=O)CCN3CCCCC3)cc2)cnc1N)c1c(Cl)ccc(F)c1Cl` (stereo not drawn) [Example I-325], the IC50 was found to be 0.089 µM.

For `CC(Oc1cc(-c2cccc(C(=O)NCCCN3CCCC3)c2)cnc1N)c1c(Cl)ccc(F)c1Cl` (stereo not drawn) [Example I-320, 3-{6-Amino-5-[1-(2,6-dichloro-3-fluoro-phenyl)-ethoxy]-pyridin-3-yl}-N-(3-pyrrolidin-1-yl-propyl)-benzamide], the IC50 amounted to 0.13 µM.

On to `Nc1ncc(-c2cccc(NS(=O)(=O)CCN3CC[C@@H](CO)C3)c2)cc1OCc1c(F)ccc(F)c1Cl` [Example I-261, 2-[(3R)-3-Hydroxymethyl-pyrrolidin-1-yl]-ethanesulfonic acid {3-[6-amino-5-(2-chloro-3,6-difluoro-benzyloxy)-pyridin-3-yl]-phenyl}-amide], for which the IC50 turned out to be 1.7 µM.

The same assay, now with this note: plain numbers in column Met IC50 (μM) of Table 2; read-out: Met IC50.
With `CC(Oc1cc(C#CCN(C)C)cnc1N)c1c(Cl)ccc(F)c1Cl` (stereo not drawn) [Example I-422, 3-[1-(2,6-Dichloro-3-fluoro-phenyl)-ethoxy]-5-(3-dimethylamino-prop-1-ynyl)-pyridin-2-ylamine], the 50% inhibitory concentration (IC50) was determined as 0.071 µM.

With `CC(Oc1cc(-c2ccc(C(=O)N3CC[C@@H](N)C3)cc2)cnc1N)c1c(Cl)cccc1Cl` (stereo partly drawn) [Example I-408, (4-{6-Amino-5-[1-(2,6-dichloro-phenyl)-ethoxy]-pyridin-3-yl}-phenyl)-((R)-3-amino-pyrrolidin-1-yl)-methanone], the IC50 came to 0.049 µM.

`CC(Oc1cc(-c2cccc(C(=O)N3CCC[C@@H]3CN3CCCC3)c2)cnc1N)c1c(Cl)cccc1Cl` (stereo partly drawn) [Example I-396, (3-{6-Amino-5-[1-(2,6-dichloro-phenyl)-ethoxy]-pyridin-3-yl}-phenyl)-((R)-2-pyrrolidin-1-ylmethyl-pyrrolidin-1-yl)-methanone]: the IC50 worked out at 0.18 µM.

In the case of `CC(Oc1cc(-c2ccc(NC(=O)NCCN3CCCC3)cc2)cnc1N)c1c(F)ccc(F)c1Cl` (stereo not drawn) [Example I-383, 1-(4-{6-Amino-5-[1-(2-chloro-3,6-difluoro-phenyl)-ethoxy]-pyridin-3-yl}-phenyl)-3-(2-pyrrolidin-1-yl-ethyl)-urea], the IC50 was determined as 0.11 µM.

Take `CC(Oc1cc(C#CCNC(=O)NCCCN2CCCC2)cnc1N)c1c(Cl)ccc(F)c1Cl` (stereo not drawn) [Example I-417, 1-(3-{6-Amino-5-[1-(2,6-dichloro-3-fluoro-phenyl)-ethoxy]-pyridin-3-yl}-prop-2-ynyl)-3-(3-pyrrolidin-1-yl-propyl)-urea]: the concentration for half-maximal inhibition (IC50) is 0.062 µM.

The assay is the same for the next values; noted with them: read-out: Met IC50.
`Nc1ncc(-c2ccc(C(=O)N3CCC(N4CCCC4)CC3)cc2)nc1OCc1cccc(F)c1C(F)(F)F` [II-127, {4-[5-Amino-6-(3-fluoro-2-trifluoromethyl-benzyloxy)-pyrazin-2-yl]-phenyl}-(4-pyrrolidin-1-yl-piperidin-1-yl)-methanone]: the IC50 came out at 0.047 µM.

For the compound `CC(Oc1nc(-c2cccc(C(=O)N3CC[C@@H](N)C3)c2)cnc1N)c1c(Cl)cccc1Cl` (stereo partly drawn) [II-180, (3-{5-Amino-6-[1-(2,6-dichloro-phenyl)-ethoxy]-pyrazin-2-yl}-phenyl)-((R)-3-amino-pyrrolidin-1-yl)-methanone hydrochloride salt], the IC50 was found to be 0.18 µM.

As to `CC(Oc1nc(-c2cccc(C(=O)N3C[C@@H](C)N[C@@H](C)C3)c2)cnc1N)c1c(Cl)ccc(F)c1Cl` (stereo partly drawn) [II-131, (3-{5-Amino-6-[1-(2,6-dichloro-3-fluoro-phenyl)-ethoxy]-pyrazin-2-yl}-phenyl)-((3R,5S)-3,5-dimethyl-piperazin-1-yl)-methanone], the IC50 was found to be 0.12 µM.

With `CN(C)[C@@H]1CCN(C(=O)c2cc3cc(-c4cnc(N)c(OCc5c(Cl)cccc5Cl)c4)ccc3[nH]2)C1` [Example I-79, {5-[6-Amino-5-(2,6-dichloro-benzyloxy)-pyridin-3-yl]-1H-indol-2-yl}-[(3R)-3-dimethylamino-pyrrolidin-1-yl]-methanone], the IC50 was determined as 0.18 µM.

On to `CC(Oc1nc(-c2cncc(C(=O)N3CCN(C)CC3)c2)cnc1N)c1c(Cl)ccc(F)c1Cl` (stereo not drawn) [II-205, (5-{5-Amino-6-[1-(2,6-dichloro-3-fluoro-phenyl)-ethoxy]-pyrazin-2-yl}-pyridin-3-yl)-(4-methyl-piperazin-1-yl)-methanone], for which the concentration for half-maximal inhibition (IC50) came to 0.1 µM.

On to `Nc1ncc(Br)cc1OCc1ccccc1Br` [I(d), 5-Bromo-3-(2-bromo-benzyloxy)-pyridin-2-ylamine], for which the IC50 was over 20 µM.

Consider `Nc1ncc(-c2ccc(N3CCCS3(=O)=O)cc2)nc1OCc1c(Cl)cccc1Cl` [II-2, 3-(2,6-Dichloro-benzyloxy)-5-[4-(1,1-dioxo-1λ^6-isothiazolidin-2-yl)-phenyl]-pyrazin-2-ylamine], for which the IC50 amounted to 0.825 µM.

As to `CN(C)[C@H]1CCN(C(=O)c2ccc(-c3cnc(N)c(OCc4c(Cl)cccc4Cl)c3)cc2)C1` [Example I-43, {4-[6-Amino-5-(2,6-dichloro-benzyloxy)-pyridin-3-yl]-phenyl}-[(3S)-3-dimethylamino-pyrrolidin-1-yl]-methanone], the IC50 was 0.47 µM.

For the compound `CC(=O)N1CCN(CCNC(=O)c2cccc(-c3cnc(N)c(OCc4cccc(F)c4C(F)(F)F)n3)c2)CC1` [II-126, N-[2-(4-Acetyl-piperazin-1-yl)-ethyl]-3-[5-amino-6-(3-fluoro-2-trifluoromethyl-benzyloxy)-pyrazin-2-yl]-benzamide], the 50% inhibitory concentration (IC50) came to 0.65 µM.

As for `Nc1ncc(-c2ccc(C(=O)N3CCC(N4CCCC4)CC3)s2)nc1OCc1c(F)ccc(F)c1Cl` [II-195, {5-[5-Amino-6-(2-chloro-3,6-difluoro-benzyloxy)-pyrazin-2-yl]-thiophen-2-yl}-(4-pyrrolidin-1-yl-piperidin-1-yl)-methanone], the IC50 is 0.51 µM.

Regarding `CC(Oc1cc(-c2ccc(C(=O)N3CCC[C@@H]3CN3CCCC3)cc2)cnc1N)c1ccccc1C(F)(F)F` (stereo partly drawn) [Example I-114, (4-{6-Amino-5-[1-(2-trifluoromethyl-phenyl)-ethoxy]-pyridin-3-yl}-phenyl)-[(2R)-2-pyrrolidin-1-ylmethyl-pyrrolidin-1-yl]-methanone], the half-maximal inhibitory concentration (IC50) is 0.33 µM.

Take `Nc1ncc(-c2cccc(NS(=O)(=O)CCN3CCC(O)CC3)c2)nc1OCc1c(F)ccc(F)c1Cl` [II-22, 2-(4-Hydroxy-piperidin-1-yl)-ethanesulfonic acid {3-[5-amino-6-(2-chloro-3,6-difluoro-benzyloxy)-pyrazin-2-yl]-phenyl}-amide]: the 50% inhibitory concentration (IC50) was 0.7 µM.

On to `Nc1ncc(-c2ccc(C(=O)NCCN3CCOCC3)cc2)cc1OCc1c(F)cccc1Cl` [Example I-148, 4-[6-Amino-5-(2-chloro-6-fluoro-benzyloxy)-pyridin-3-yl]-N-(2-morpholin-4-yl-ethyl)-benzamide], for which the IC50 turned out to be 6.4 µM.

On to `CN(CC(O)CN1CCCC1)C(=O)c1ccc(-c2cnc(N)c(OCc3c(Cl)cccc3Cl)c2)cc1` (stereo not drawn) [Example I-51, 4-[6-Amino-5-(2,6-dichloro-benzyloxy)-pyridin-3-yl]-N-(2-hydroxy-3-pyrrolidin-1-yl-propyl)-N-methyl-benzamide], for which the IC50 turned out to be 0.71 µM.

As to `Nc1ncc(-c2cccc(C(=O)NCCCN3CCCC3)c2)nc1OCc1c(F)ccc(F)c1Cl` [II-60, 3-[5-Amino-6-(2-chloro-3,6-difluoro-benzyloxy)-pyrazin-2-yl]-N-(3-pyrrolidin-1-yl-pyropyl)-benzamide], the IC50 amounted to 1.48 µM.

In the case of `CC(=O)N[C@@H]1CCN(Cc2c[nH]c3ccc(-c4cnc(N)c(OCc5c(Cl)cccc5Cl)c4)cc23)C1` [Example I-67, N-(1-{5-[6-Amino-5-(2,6-dichloro-benzyloxy)-pyridin-3-yl]-1H-indol-3-ylmethyl}-(3R)-pyrrolidin-3-yl)-acetamide], the IC50 was found to be 1.79 µM.

Turning to `Cc1ccc(F)c(COc2cc(-c3ccccc3)cnc2N)c1F` [Example I-101, 3-(2,6-Difluoro-3-methyl-benzyloxy)-5-phenyl-pyridin-2-ylamine], the IC50 was determined as 12 µM.

With `Nc1ncc(-c2ccc(C(F)(F)F)cc2)cc1OCc1c(Cl)cccc1Cl` [Example I-25], the IC50 was over 20 µM.

Turning to `Nc1ncc(-c2ccc(NS(=O)(=O)CCN3CCCCC3)cc2)nc1OCc1c(F)ccc(F)c1Cl` [II-10, 2-Piperidin-1-yl-ethanesulfonic acid {4-[5-amino-6-(2-chloro-3,6-difluoro-benzyloxy)-pyrazin-2-yl]-phenyl}-amide], the IC50 came to 1.2 µM.

In the case of `Nc1ncc(-c2ccc(NS(=O)(=O)CCNCC3CC3)cc2)nc1OCc1c(F)ccc(F)c1Cl` [II-15, 2-(Cyclopropylmethyl-amino)-ethanesulfonic acid {4-[5-amino-6-(2-chloro-3,6-difluoro-benzyloxy)-pyrazin-2-yl]-phenyl}-amide], the IC50 is 1.28 µM.
